# Values of other authors in patent US20230023032A1, “SUSTAINED RELEASE COMPOSITIONS COMPRISING LIOTHYRONINE” (Amneal Complex Products Research LLC, priority 2020, published 2023).
# Conditions: administered in an immediate release form
structure (smiles),measurement,value
N[C@@H](Cc1cc(I)c(Oc2ccc(O)c(I)c2)c(I)c1)C(=O)O [liothyronine],half-life,about 10 hours
